System: excised human nerve tissue
Assay: Phage display selection on excised human nerve tissue (Nerve2, Nerve3), NextGen sequence counts
Format: binding
Details: unique sequence count (relative enrichment)
Protocol: Several m13 phage libraries were constructed expressing randomized variants of a parent peptide (QVPWEEPYYVVKKS-SGGL; SEQ ID NO: 576). In particular, the first 14 amino acids of the parent peptide were randomized using degenerate oligonucleotide synthesis to obtain a diverse set of peptides with a mutation rate of about 50% per residue.
To accomplish this, synthesis was carried out by the XXK codon design approach, where X is any base and K is G or T. To bias synthesis towards the parent sequence, synthesis was carried out at each X position with a mixture of about 70%-85% of the parent nucleotide and 15-30% of the remaining 3 nucleotides. The resulting molecules were inserted into fADL-1e (Antibody Design Laboratories), which is a type 3 phage display vector having a cloning site on the N-terminal side of the full-length gene III protein. The fusion proteins are directed to the periplasm by the PelB leader peptide, which is inserted in the vector […].
Collectively, the phage display libraries used in the screens comprised about 600 million peptides, with sequencing analysis confirming a mutation rate of about 50% per residue.
Phage libraries were independently processed, as follows, with five biological samples: two independent samples of excised human nerve tissue, one sample of a human nerve extract, and two independent samples of human muscle tissue, as follows:
Excised Human Nerve Tissue: For each of the two independent samples, phage were processed through multiple cycles of selection, with representative phage being isolated and sequenced after each selection cycle. Specifically, for selection using human nerve tissue, a sample of […] tissue (2 mm by 2 mm) was washed prior to mixing and incubation with a phage library. After incubation, the mixture (containing mostly intact nerves with phage particles that had variable affinity for nerves) was centrifuged and the nerve pellet washed multiple times with PBS to remove phage with little or no affinity for nerve tissue. The pellet was homogenized and plated for titering and reamplification. Phage that were bound at each round were sequenced. NextGen sequencing of pools after 2, 3 and 4 rounds of selection were used to isolate candidate sequences that were further analyzed using bioinformatics.
NextGen sequencing of pools after 2, 3 and 4 rounds of selection were used to isolate candidate sequences from each of the five samples. These five data sets were then analyzed as described in the next section.
Peptide and vector sequences were translated starting at the first start codon in the nucleotide sequence. […] Trimmed peptides with identical sequences were combined and quantified according to their frequency (count).
Following processing, an R script was written to merge the unique peptide sequences (with counts 6 or greater) from the 5 different data sets to analyze the overlap between nerve and muscle binding activity.
For the single Nerve2, Nerve3, and Plated Nerve2 (pn2) subsets, the number of counts for each group was set at a threshold giving rise to at least 100 peptides. […] As highlighted in yellow in FIG. 1B, the representative group also included 6 unique peptides overlapping between nerve2 and nerve3, 200 unique peptides overlapping between nerve2 and plated nerve2 (at least 60 counts), 4 unique peptides overlapping between nerve3 and plated nerve2. Finally, as highlighted in green in FIG. 1B, the representative group also included […] common to the nerve2, nerve3, and plated nerve2 sets.

[1] = peptides overlapping between Nerve2 and Plated Nerve2
[2] = peptides overlapping between Nerve2 and Nerve3
[3] = peptides common to Nerve2, Nerve3 and Plated Nerve 2 sets

## 78 (HFPSKALNNTAKNT) [compound 78]
[1]
  Count: 151

## 261 (HYRCVGSCYVVAKS) [compound 261]
Nerve2 only
  Count: 13

## 248 (HFAWVVPNDAVKAS) [compound 248]
Nerve2 only
  Count: 15

## 253 (LLPSDEAHYIVKHS) [compound 253]
Nerve2 only
  Count: 14

## 423 (HLLGDYRFWAFTNA) [compound 423]
Nerve3 only
  Count: 109

## 221 (QVPWQDPVYDVNNA) [compound 221]
[1]
  Count: 65

## 397 (TVPAHNPYYLVKQT) [compound 397]
Nerve3 only
  Count: 185

## 132 (TLPVYVPYYVVNNT) [compound 132]
[1]
  Count: 96

## 245 (QIPGEAPYSFGKKY) [compound 245]
Nerve2 only
  Count: 18

## 271 (HVQLREHYFVVYSS) [compound 271]
Nerve2 only
  Count: 12

## 139 (DVPLEDTYYRVKKY) [compound 139]
[1]
  Count: 91

## 387 (QILRVHPDYVVVNP) [compound 387]
Nerve3 only
  Count: 231

## 158 (HVASEQPYYGVNRP) [compound 158]
[1]
  Count: 80

## 412 (QVQWQVPYYVVKKP) [compound 412]
Nerve3 only
  Count: 128

## 93 (QPTWEQPYHVDRNS) [compound 93]
[1]
  Count: 131

## 70 (QVPSVQPYYIGKNT) [compound 70]
[1]
  Count: 175

## 127 (QFRIEDSYDVANQS) [compound 127]
[1]
  Count: 102

## 374 (QGQTETHSHDAKRY) [compound 374]
Nerve3 only
  Count: 270

## 61 (QIHFGEPNYVVKKS) [compound 61]
[1]
  Count: 194

## 371 (RDRHEDSKFVMNHS) [compound 371]
Nerve3 only
  Count: 290

## 183 (DVLLARTYYFGEFP) [compound 183]
[1]
  Count: 74

## 368 (HVPLQEADYVLKKF) [compound 368]
Nerve3 only
  Count: 315

## 320 (HVTWGEPYQVLNKS) [compound 320]
Nerve2 only
  Count: 10

## 85 (HGQTQEPSYVTVYY) [compound 85]
[1]
  Count: 139

## 144 (HVTWGKTYHLVTDS) [compound 144]
[1]
  Count: 88

## 32 (DDLWQDLYGVVKKS) [compound 32]
[2]
  Count: 106

## 75 (DVRWDEPYYVDEKI) [compound 75]
[1]
  Count: 161

## 348 (RLPSEALYYLVKRS) [compound 348]
Nerve2 only
  Count: 10

## 372 (QVPFAHPYYVVNMS) [compound 372]
Nerve3 only
  Count: 288

## 3 (HVTWQEQYYVLKTP) [compound 3]
[3]
  Count: 371

## 201 (QLTWPKQNYTMTQS) [compound 201]
[1]
  Count: 69

## 443 (QLTWELGYHAFVKP) [compound 443]
Nerve3 only
  Count: 83

## 142 (HVTWQQTKYVTNRS) [compound 142]
[1]
  Count: 89

## 404 (QFYWDQSNYGEQKP) [compound 404]
Nerve3 only
  Count: 161

## 106 (QIPWEAPSYGATIS) [compound 106]
[1]
  Count: 113

## 19 (ATPCSQPCAVVPKF) [compound 19]
[3]
  Count: 142

## 131 (HILLEEPSNVLNKR) [compound 131]
[1]
  Count: 96

## 33 (NLAWAESKFLLEKI) [compound 33]
[2]
  Count: 71

## 417 (DLFVEEPYLGVIKF) [compound 417]
Nerve3 only
  Count: 117

## 37 (HVALEQPYYAVKES) [compound 37]
Peptides overlapping between Nerve3 and Plated Nerve 2
  Count: 342

## 317 (HVPYVGAYNGVKKS) [compound 317]
Nerve2 only
  Count: 10

## 395 (QFLWQQPDHVRRKS) [compound 395]
Nerve3 only
  Count: 196

## 373 (HVRWGEPSYVLKNF) [compound 373]
Nerve3 only
  Count: 272

## 62 (QFPWEGSYYTAKQS) [compound 62]
[1]
  Count: 193

## 109 (DVPLVKPHYGAVDS) [compound 109]
[1]
  Count: 111

## 266 (QSTPEERYHRVIQA) [compound 266]
Nerve2 only
  Count: 13

## 43 (QLPMGGPYERVNNT) [compound 43]
[1]
  Count: 380

## 194 (QYPAERPTFDVTNA) [compound 194]
[1]
  Count: 71

## 228 (QIPWGETTAGIKKL) [compound 228]
[1]
  Count: 64

## 87 (QLPWYEADYRMEYY) [compound 87]
[1]
  Count: 139

## 107 (HVGWEQPYYVLRKS) [compound 107]
[1]
  Count: 112

## 68 (HVLWEDSSYHVTHH) [compound 68]
[1]
  Count: 179

## 340 (QSQCAGPGSAYKKC) [compound 340]
Nerve2 only
  Count: 10

## 337 (QLPLQYRYYFVDQS) [compound 337]
Nerve2 only
  Count: 10

## 46 (QLPSYQAHDVMKVH) [compound 46]
[1]
  Count: 308

## 6 (QVPTEVQFYLVKEP) [compound 6]
[3]
  Count: 337

## 419 (QIPWVEASNVLISF) [compound 419]
Nerve3 only
  Count: 115

## 160 (QEPWDEFSYNVNAL) [compound 160]
[1]
  Count: 80

## 102 (HLPSQVTHYVITSF) [compound 102]
[1]
  Count: 115

## 405 (HVPWAGSSDVLKVT) [compound 405]
Nerve3 only
  Count: 160

## 274 (QALLEEKYTALKKS) [compound 274]
Nerve2 only
  Count: 12

## 407 (HVWWEDPYYVVRKT) [compound 407]
Nerve3 only
  Count: 158

## 202 (QLPWGAPYYVVKNS) [compound 202]
[1]
  Count: 68

## 66 (QIPCEGPYSGVQMC) [compound 66]
[1]
  Count: 186

## 186 (SITNKQSVYVLKKS) [compound 186]
[1]
  Count: 73

## 35 (YVPWQEPYYVQKNL) [compound 35]
[2]
  Count: 49

## 225 (NVEWEIPYYFVKKF) [compound 225]
[1]
  Count: 64

## 167 (DRLSDEPFKGMTHS) [compound 167]
[1]
  Count: 77

## 389 (HFSSQESNSGGKKW) [compound 389]
Nerve3 only
  Count: 230

## 207 (HDTWKGPYYPANKS) [compound 207]
[1]
  Count: 67

## 354 (QIASEERDNIVKKS) [compound 354]
Nerve3 only
  Count: 462

## 42 (QHTWKEPYNGQKRT) [compound 42]
[1]
  Count: 577

## 233 (HVSSEYPYYVVKHT) [compound 233]
[1]
  Count: 62

## 50 (RLPSDDHNTFGTRS) [compound 50]
[1]
  Count: 249

## 444 (QLLRNLSYDGAKYS) [compound 444]
Nerve3 only
  Count: 82

## 116 (EVPVGDLSYVGKKY) [compound 116]
[1]
  Count: 108

## 329 (NVPWSEQYNALKTS) [compound 329]
Nerve2 only
  Count: 10

## 391 (TFQYEQPNLVVKNA) [compound 391]
Nerve3 only
  Count: 207

## 410 (QVSWVYPPNDVIVS) [compound 410]
Nerve3 only
  Count: 133

## 325 (LAPFEERSYALKSP) [compound 325]
Nerve2 only
  Count: 10

## 45 (QVPTGEPLYPVQKT) [compound 45]
[1]
  Count: 323

## 237 (RLAWEEPHYVVKKS) [compound 237]
[1]
  Count: 61

## 316 (HVPSGERYYVVKTI) [compound 316]
Nerve2 only
  Count: 10

## 243 (EVPSLQPYHGGKKS) [compound 243]
Nerve2 only
  Count: 19

## 236 (QLPLAKPNSVVATS) [compound 236]
[1]
  Count: 61

## 307 (HAPADQLYYPVWKP) [compound 307]
Nerve2 only
  Count: 10

## 215 (HILRQEPYYVLTNY) [compound 215]
[1]
  Count: 65

## 385 (HVSGEEPYTVGNTS) [compound 385]
Nerve3 only
  Count: 234

## 252 (HVLRHEPYYVVAQA) [compound 252]
Nerve2 only
  Count: 14

## 262 (LFRSQAQNVLVISH) [compound 262]
Nerve2 only
  Count: 13

## 177 (EALWYKHYYGVHKT) [compound 177]
[1]
  Count: 75

## 356 (QLPGYEPYYVGTVS) [compound 356]
Nerve3 only
  Count: 412

## 146 (QYPREEPRHALKMS) [compound 146]
[1]
  Count: 88

## 319 (HVRGAELSYVLTKS) [compound 319]
Nerve2 only
  Count: 10

## 114 (HLPFEAPYYAVKRS) [compound 114]
[1]
  Count: 109

## 206 (HATLQEPYFVVNHY) [compound 206]
[1]
  Count: 67

## 335 (QLHWGQPYSILNKS) [compound 335]
Nerve2 only
  Count: 10

## 96 (DVPWKESFNIVENS) [compound 96]
[1]
  Count: 126

## 277 (QIQREEPFYVLKLY) [compound 277]
Nerve2 only
  Count: 12

## 442 (QFPSAETYRIVKKF) [compound 442]
Nerve3 only
  Count: 83

## 173 (QQRLSASYQHVIKS) [compound 173]
[1]
  Count: 77

## 23 (QVSSQEPNFIVKNN) [compound 23]
[3]
  Count: 116
